Results published in paper PMC6522510 (Nature Communications, 2019).
pEC50: −log10 of the molar value. Read-outs that look alike come from different tables or passages of the source.

Key:
Test in all cases: cells
Parameters in all cases: species or system AML cell lines (8); Secondary HTS, 10-point dose-response in triplicate, Cell Titer Glo viability, four-parameter fit EC50
M07e = conditions: M-07e, read-out: M07e
CHRF288-11 = conditions: read-out: CHRF288-11
CMS = conditions: read-out: CMS
MV4-11 = conditions: Homo sapiens, read-out: MV4-11
MOLM-13 = conditions: Homo sapiens, read-out: MOLM-13
CMK = conditions: Homo sapiens, read-out: CMK
U937 = conditions: Homo sapiens, read-out: U937
ML-2 = conditions: Homo sapiens, read-out: ML-2

| SMILES | pEC50 (M07e; 72 h) | pEC50 (CHRF288-11; 72 h) | pEC50 (CMS; 72 h) | pEC50 (MV4-11; MV4-11, 72 h) | pEC50 (MOLM-13; MOLM-13, 72 h) | pEC50 (CMK; CMK, 72 h) | pEC50 (U937; U-937, 72 h) | pEC50 (ML-2; ML-2, 72 h) | pEC50 (M07e; 72 h cell viability) | pEC50 (CHRF288-11; 72 h cell viability) | pEC50 (CMS; 72 h cell viability) | pEC50 (MV4-11; 72 h cell viability) | pEC50 (MOLM-13; 72 h cell viability) | pEC50 (CMK; 72 h cell viability) | pEC50 (U937; U-937, 72 h cell viability) | pEC50 (ML-2; 72 h cell viability) |
| --- | --- | --- | --- | --- | --- | --- | --- | --- | --- | --- | --- | --- | --- | --- | --- | --- |
| NC(=O)C1CCCc2c1[nH]c1ccc(Cl)cc21 (stereo not shown) [SJ000784267] | < 5.00 | < 5.00 | < 5.00 | < 5.00 | < 5.00 | < 5.00 | < 5.00 | < 5.00 |  |  |  |  |  |  |  |  |
| Cn1cc(/C=C/C(=O)c2cccc(F)c2)cc1/C=C/C(=O)NO [SJ000784269, MC1568] | 6.34 | 5.31 | < 5.00 | < 5.00 | < 5.00 | < 5.00 | 5.47 | 5.37 |  |  |  |  |  |  |  |  |
| Clc1ccc(-c2csc(NN=C3CCCC3)n2)cc1 [SJ000784270, CPTH2] | < 5.00 | < 5.00 | < 5.00 | < 5.00 | < 5.00 | < 5.00 | < 5.00 | < 5.00 |  |  |  |  |  |  |  |  |
| Cn1cccc1/C=C1\C(=O)NC(=O)c2ccccc21 [SJ000784271, BYK 204165] | 6.20 | 5.26 | 5.66 | 6.14 | 6.59 | < 5.00 | 5.80 | < 5.00 |  |  |  |  |  |  |  |  |
| CN(C)CCCNc1c2ccccc2nc2c1[nH]c1ccccc12 [SJ000784272, SYUIQ-5] | 6.27 | 5.80 | 6.43 | < 5.00 | 5.80 | < 5.00 | 6.68 | 5.74 |  |  |  |  |  |  |  |  |
| CC(C)C(=O)SCCCCCCC(=O)Nc1nc(-c2ccccc2)cs1 [SJ000784276, NCH 51] | 5.44 | 5.44 | 5.35 | < 5.00 | 5.51 | < 5.00 | 5.17 | 5.25 |  |  |  |  |  |  |  |  |
| NC(=O)c1cccc2ncc(-c3ccc(Cl)cc3)nc12 [SJ000784278, PARP INHIBITOR XII] | < 5.00 | < 5.00 | < 5.00 | < 5.00 | 5.60 | < 5.00 | < 5.00 | < 5.00 |  |  |  |  |  |  |  |  |
| O=C(O)C(Cc1c[nH]c2ccccc12)N1C(=O)c2ccccc2C1=O (stereo not shown) [SJ000784279, RG108] | < 5.00 | < 5.00 | < 5.00 | < 5.00 | < 5.00 | < 5.00 | < 5.00 | < 5.00 |  |  |  |  |  |  |  |  |
| COC(=O)/C=C/C(=O)OC [SJ000784308, BG-12] | < 5.00 | < 5.00 | < 5.00 | < 5.00 | < 5.00 | < 5.00 | < 5.00 | < 5.00 |  |  |  |  |  |  |  |  |
| COc1ccc(-c2cc3c(C)nc(N)nc3n([C@H]3CC[C@H](OCCO)CC3)c2=O)cn1 [SJ000784313, PF-04691502] | < 5.00 | 5.37 | 6.47 | 9.00 | 5.68 | 5.85 | 6.22 | 6.64 |  |  |  |  |  |  |  |  |
| CN[C@@H]1C[C@H]2O[C@@](C)([C@@H]1OC)n1c3ccccc3c3c4c(c5c6ccccc6n2c5c31)C(=O)N[C@H]4O [SJ000784325, 7-HYDROXYSTAUROSPORINE] | < 5.00 | 6.46 | 6.39 | 6.72 | 7.19 | 6.64 | 6.59 | 6.60 |  |  |  |  |  |  |  |  |
| Nc1nc(=O)n([C@H]2C[C@H](O)[C@@H](CO)O2)cc1F [SJ000785889, 5-FLUORODEOXYCYTIDINE] | < 5.00 | 5.50 | < 5.00 | < 5.00 | 6.35 | 6.85 | < 5.00 | 8.05 |  |  |  |  |  |  |  |  |
| COc1cc2c(cc1-c1c(C)noc1C)ncc1[nH]c(=O)n([C@H](C)c3ccccn3)c12 [SJ000785891, I-BET151] | < 5.00 | 5.29 | 5.68 | < 5.00 | 6.19 | < 5.00 | 5.49 | 5.57 |  |  |  |  |  |  |  |  |
| Fc1ccc(CNc2ncnc3ccc(F)cc23)cc1 [SJ000785893, SPAUTIN-1] | < 5.00 | < 5.00 | < 5.00 | < 5.00 | < 5.00 | < 5.00 | 5.52 | < 5.00 |  |  |  |  |  |  |  |  |
| Nc1ncnc2c1ncn2[C@@H]1O[C@H](C(=O)N2CCN(CC(=O)Nc3cccc4c3CNC4=O)CC2)[C@@H](O)[C@H]1O [SJ000785896, EB-47] | < 5.00 | < 5.00 | < 5.00 | < 5.00 | < 5.00 | < 5.00 | < 5.00 | < 5.00 |  |  |  |  |  |  |  |  |
| CCCCCCCCCCCCCCCc1cccc(O)c1C(=O)O [SJ000785900, ANACARDIC ACID] | < 5.00 | < 5.00 | < 5.00 | < 5.00 | < 5.00 | < 5.00 | < 5.00 | < 5.00 |  |  |  |  |  |  |  |  |
| COc1cc2c(NC3CCN(C)CC3)nc(N3CCCN(C)CC3)nc2cc1OCCOCCN(C)C [SJ000785901, UNC0321] | < 5.00 | < 5.00 | < 5.00 | < 5.00 | < 5.00 | < 5.00 | < 5.00 | < 5.00 |  |  |  |  |  |  |  |  |
| Cc1cc(Nc2ccc(NC(=O)c3ccc(Nc4ccnc5ccccc45)cc3)cc2)nc(N)n1 [SJ000785906, SGI-1027] | 5.80 | 5.55 | 5.00 | 5.92 | 5.85 | < 5.00 | 6.12 | 5.59 |  |  |  |  |  |  |  |  |
| CC(C)(O)[C@@H]1CC[C@](C)([C@H]2[C@@H](O)C[C@@]3(C)[C@@H]4C[C@H](O[C@@H]5O[C@H](CO)[C@@H](O)[C@H](O)[C@H]5O)[C@H]5C(C)(C)[C@@H](O[C@@H]6OC[C@@H](O)[C@H](O)[C@H]6O)CC[C@@]56C[C@@]46CC[C@]23C)O1 [SJ000785909, ASTRAGALOSIDE IV] | < 5.00 | 6.09 | < 5.00 | < 5.00 | 5.37 | < 5.00 | < 5.00 | 6.06 |  |  |  |  |  |  |  |  |
| C[C@@H]1NC(=O)[C@H]2CCCN2C(=O)[C@H](CCCCCC(=O)[C@@H]2CO2)NC(=O)[C@@H](C)NC1=O [SJ000785910, HC TOXIN] |  |  |  |  |  |  |  |  | 7.68 | 7.30 | 7.54 | < 5.00 | 6.82 | < 5.00 | 7.49 | 6.96 |
